{"source": "patent US20110178094A1", "about": "“Oral Formulation” (H. LUNDBECK A/S, priority 2008, published 2011)", "key": {"[1]": {"system": "condition avoidance response (CAR) model", "test": "Condition avoidance response (CAR) model", "type": "in vivo", "settings": "rats; at very low levels of D2 receptor occupancy", "description": "The compound of formula I is a putative antipsychotic compound with affinity for both dopamine D1 and D2 receptors."}, "[2]": {"system": "preclinical models of cognitive dysfunctions", "test": "Preclinical models of cognitive dysfunctions", "type": "in vivo", "description": "It is believed that the 5-HT6 receptor affinity of the compound of formula I is involved in the precognitive effects of the compound. Furthermore, it is believed that such pro-cognitive effect of the compound of formula I will be evident at a low level of D2 receptor occupancy, which is beneficial in terms of the side-effect profile."}, "[3]": {"test": "Study of the compatibility of the excipients and the compound", "type": "physicochemical", "settings": "components used in the tablet formulation", "description": "Based on this, a traditional wet granulation, tabletting and film-coating process was developed using standard methods and excipients."}, "[4]": {"target": "dopamine D1 receptors (Homo sapiens, UniProt P21728)", "sequence (P21728 whole entry)": "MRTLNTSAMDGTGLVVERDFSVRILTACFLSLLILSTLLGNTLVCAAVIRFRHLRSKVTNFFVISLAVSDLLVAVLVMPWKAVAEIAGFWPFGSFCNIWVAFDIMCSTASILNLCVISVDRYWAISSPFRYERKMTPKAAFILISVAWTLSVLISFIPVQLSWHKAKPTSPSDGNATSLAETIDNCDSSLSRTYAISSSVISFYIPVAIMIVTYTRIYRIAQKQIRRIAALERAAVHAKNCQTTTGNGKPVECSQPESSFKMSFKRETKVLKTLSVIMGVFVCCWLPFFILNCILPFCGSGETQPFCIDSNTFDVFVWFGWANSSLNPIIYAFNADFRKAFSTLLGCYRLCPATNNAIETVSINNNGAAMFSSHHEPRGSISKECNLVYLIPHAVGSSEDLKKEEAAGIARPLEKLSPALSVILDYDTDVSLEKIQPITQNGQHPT", "settings": "reported in WO 2005/016900; cited from earlier work"}, "[5]": {"target": "dopamine D2 receptors (Homo sapiens, UniProt P14416)", "sequence (P14416 whole entry)": "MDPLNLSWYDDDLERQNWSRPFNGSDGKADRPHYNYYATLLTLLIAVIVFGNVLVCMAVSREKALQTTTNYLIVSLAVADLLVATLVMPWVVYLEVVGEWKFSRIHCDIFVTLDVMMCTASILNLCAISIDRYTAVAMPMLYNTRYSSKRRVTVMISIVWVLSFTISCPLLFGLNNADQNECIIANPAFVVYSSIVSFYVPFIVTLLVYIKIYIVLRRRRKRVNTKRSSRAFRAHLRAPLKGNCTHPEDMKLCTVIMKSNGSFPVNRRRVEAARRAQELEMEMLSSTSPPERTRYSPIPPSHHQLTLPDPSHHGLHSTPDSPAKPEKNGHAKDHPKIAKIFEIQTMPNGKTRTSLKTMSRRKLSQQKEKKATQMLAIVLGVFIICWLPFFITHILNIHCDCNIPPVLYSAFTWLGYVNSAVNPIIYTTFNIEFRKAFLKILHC", "settings": "reported in WO 2005/016900; cited from earlier work"}, "[6]": {"system": "5-HT2 receptor", "settings": "reported in WO 2005/016900; cited from earlier work"}, "[7]": {"system": "α1 adrenoceptors", "settings": "reported in WO 2005/016900; cited from earlier work"}}}
{"compound": "CN1CCN([C@@H]2C[C@@H](c3ccccc3)c3ccc(Cl)cc32)CC1(C)C", "note": "[compound of formula I, 4-((1R,3S)-6-chloro-3-phenylindan-1-yl)-1,2,2-trimethylpiperazine]", "values": [{"measurement": "antipsychotic activity in CAR model", "setting": "[1]", "result": "possesses antipsychotic activity"}, {"measurement": "cognition enhancing properties", "setting": "[2]", "result": "cognition enhancing properties"}, {"measurement": "compatibility of the tablet excipients with the compound", "setting": "[3]", "result": "compatible"}, {"measurement": "affinity for dopamine D1 receptors (antagonist)", "setting": "[4]", "result": "high affinity"}, {"measurement": "affinity for dopamine D2 receptors (antagonist)", "setting": "[5]", "result": "high affinity"}, {"measurement": "affinity for the 5-HT2 receptor (antagonist)", "setting": "[6]", "result": "high affinity"}, {"measurement": "affinity for α1 adrenoceptors", "setting": "[7]", "result": "high affinity"}]}
